Data reported in article PMC10870044, “The Interplay Between HIF‐1α and EZH2 in Lung Cancer and Dual‐Targeted Drug Therapy” (Advanced Science, 2023).

Key:
[1] = tested on: A549/DR cells; experiment: Annexin V-FITC/PI apoptosis assay; type: cell-based, Human; conditions: 48 h exposure
Experimental: (§1) After incubation for 48 h, cells were harvested by centrifugation and washed twice in PBS. Then stained the cells according to the FITC Annexin V Apoptosis Detection Kit II (BD Biosciences, USA). Control cells stained with Annexin‐V or PI alone were used to compensate for flow cytometric analysis. Viable cells were those with both Annexin‐V and PI‐double negative staining. Annexin‐V‐positive and PI‐negative cells were defined as early apoptotic cells, and Annexin‐V and PI‐double‐positive cells were defined as late apoptotic cells.

[2] = tested on: H460/DR cells; experiment: Annexin V-FITC/PI apoptosis assay; type: cell-based, Human; conditions: 48 h exposure
Experimental: as §1

[3] = tested on: A549/DR and H460/DR cells; experiment: CCK-8 cytotoxicity, resistance ratio in dual drug-resistant cells; type: cell-based, Human; conditions: A549/DR and H460/DR vs parental
Experimental: Cells (4 × 10^3per well) were seeded into a 96‐well plate and cultured at 37°C in a 5% CO2 incubator. After 24 h, different concentrations of 2‐ME2 were put into wells which ranged from 0.01 to 100 µM with a minimum of three technical replicates. After 72 h, 10 µl CCK‐8 (MCE, NY, USA) was added to each well and incubated for an additional 4 h at 37°C in a 5% CO2 incubator. Then, […]. The optical density values were measured at 450 nm using a microplate reader (Molecular Devices, San Jose, CA, USA).

[4] = tested on: multiple myeloma; set-up: method as in PMID 20499131, PMID 17947482, PMID 16832603, PMID 16197617; conditions: sixty patients with multiple myeloma, phase II study; ref [15], [16], [17], [18]; cited from earlier work
[5] = tested on: HIF‐1; experiment: HIF-1 luciferase reporter gene assay (U251-HRE / U251-PGL3); type: cell-based; conditions: hypoxic environments, compared to the control group
Experimental: HIF‐1 activity was assessed in U251‐HRE and U251‐PGL3 using a 96‐well format. Cells were rinsed twice with ice‐cold PBS, lysed with 200 µl of passive lysis buffer (Promega, Wisconsin, USA), and incubated at room temperature for 10 min. Lysates were centrifuged and stored at −80°C until assayed. Luciferase assays were conducted by pipetting 20 µl of cell lysate into each well of a 96‐well plate and analyzed immediately after adding the luciferase reagent (Promega) in a multi‐mode microplate reader (Centro LB960, Berthold, Germany).

[6] = tested on: A549/2‐ME2 and H460/2‐ME2 cells; experiment: Epigenetics Compound Library screen in HIF-1 inhibitor-resistant cells; type: cell-based, Human
[7] = tested on: HIF‐1α; experiment: Western blot of HIF-1α after EZH2 inhibitors; type: cell-based; conditions: compared to the control group

Row | SMILES | apoptotic cell population [1] | apoptotic cell population [2] | resistance ratio (RI) of the IC50 in drug‐resistant cells compared to the IC50 in parental cells [3] | objective response in patients [4] | luciferase activity in U251 [5] | sensitivity of resistant cells compared to the parental cells [6] | HIF‐1α protein levels [7]
1 | COc1cc2c(cc1O)CC[C@@H]1[C@@H]2CC[C@]2(C)[C@@H](O)CC[C@@H]12 [2‐ME2, 2‐methoxy estradiol] | much lower | much lower | ≈ 4 | no objective response |  |  | 
2 | CCN(c1cc(-c2ccc(CN3CCOCC3)cc2)cc(C(=O)NCc2c(C)cc(C)[nH]c2=O)c1C)C1CCOCC1 [EPZ6438] |  |  |  |  | promoted luciferase activity | more sensitive | 
3 | CCN(c1cc(C#CCN2CCOCC2)cc(C(=O)NCc2c(C)cc(C)[nH]c2=O)c1C)[C@H]1CC[C@H](N(C)CCOC)CC1 [EPZ011989] |  |  |  |  |  | more sensitive | 
4 | CC[C@H](C)n1cc(C)c2c(C(=O)NCc3c(C)cc(C)[nH]c3=O)cc(-c3ccc(N4CCNCC4)nc3)cc21 [GSK126] | much lower | much lower | ≈ 4 |  | promoted luciferase activity | more sensitive | significantly higher levels of HIF‐1α protein
